# Assay results taken from patent US20090317376A1, “Compositions And Methods For Lipo Modeling” (Georgetown University MEDICAL SCHOOL, priority 2005, published 2009).
# Entries after “also recorded” stand apart in the source; their conditions may differ.
# Tests used:
# human fat pads = assay: Human fat xenograft in nude athymic mice; format: in vivo
# Method: In addition to augmenting mouse fat with NPY, human fat from elective liposuction surgery is harvested by using a closed syringe system (Cell Friendly, Tulip Medical) to minimize cell trauma during harvest and aliquots of 100 μl are injected subcutaneously into a nude athymic mouse. Slow release pellets of NPY or placebo are subcutaneously implanted within 1 cm of the fat pad, replaced 2 weeks later, and then harvested after 4 weeks of formation of fat pads. Ultrasound is used to monitor vascularization of fat pads at various time points. The time-course of expression of the NPY system and its downstream mediators is determined in relation to innervation, vascularization and fat growth (by MRI, ultrasound, IHC). Dependence of adipogenesis on angiogenesis is assessed by comparing non-specific, antiangiogenic therapy with the blockade of the NPY-Y2 angiogenic pathway. […] This observation is confirmed by ultrasound (FIG. 7, bottom).
# Human fat implantation: The processed fat for injection is loaded into syringes. The nude mice are anesthetized and slow release pellets inserted as described above. A small nick is made with a pair of sterile scissors in the close proximity of the pellets and 100 μl of fat is implanted using an 18 gauge Coleman infiltration cannula (Byron Medical) attached to the syringe. If necessary, the skin wound is closed with medical cyanoacrylate and the mouse is allowed to recover. The fat pad growth is monitored and the sample harvested as described above.
# Ultrasonography: The mice are anesthetized by inhalation of isoflurane 1-3% in oxygen, hair removed with depilatory cream and a sterile water based ultrasonic gel is applied to the area (Aquasonic gel—Visual Sonics). The mouse is placed in the Visual Sonics mouse holder containing a thermostatically controlled heating pad to maintain mouse body temperature. The imaging is performed with a small animal ultrasound system, Visual Sonics Vivo 660 (55 MHz).
# 1. Cell culture: 3T3-L1 preadipocyte cells, (gift from Dr. Lane,^34) were cultured in DMEM high glucose media with glutamine, 10% calf sera (Gemini Bioproducts), d-Biotin (8 μg/ml) and Pantothenate (8 μg/ml) (Sigma). SK-N-BE(2) neuroblastoma cells (ATCC) were cultured in EMEM/F12K with 10% fetal bovine sera (FBS). HMVEC endothelial cells (Cambrex) were cultured in endothelial cell growth media (Cambrex). All media was supplemented with 100 units/ml penicillin, 100 μg/ml streptomycin and […] amphotericin. 2. […] After 24 h, cells were harvested in a 96-well harvester (Tomtec) and counted in a Betaplate Liquid Scintillation Counter (Wallac). […] After 48 hr, the cells were counted with a Beckman Coulter Counter. […]
# abdominal fat = assay: Stress and high-fat diet induced obesity model; format: in vivo, mice
# Method: In environmentally-induced obese mice, normal NWT C57BL/6 and SV129 mice are subjected to low levels of chronic stress (cold stress, 1 cm ice-water bath at the base of the cage for 1 hour, a technique that increases NPY and stimulates vascular growth) and fed a high-fat, “comfort food” diet consisting of lard and sucrose (standard chow diet/high fat diet: fat: 12%/45%, carbohydrates: 60%/35%, and protein: 28%/20%). These mice are treated with NPY, Y2R agonists and Y2R antagonists. The growth of fat deposits is monitored by MRI and vascularization is confirmed by immunohistochemistry (IHC). ELISA, IHC, and quantitative real-time RT-PCR are used to determine how diet and stress affect NPY and Y2R levels. Core body temperature and food intake are monitored to determine changes in metabolism (FIG. 15). Glucose tolerance tests and lipid profiles of the mice are used to determine whether altering adipose mass results in a change in insulin, glucose, FFA, TG or cholesterol in the plasma (FIG. 18).
# Magnetic Resonance Imaging (MRI): A Brukker 7-Tesla small-animal magnetic resonance imager coil is used to visualize and noninvasively quantitate various fat depots. A 3-dimensional (3D) T2-weighted (T2W) imaging protocol optimized for high contrast fat-imaging is implemented. […] Quantification of the total body fat as well as separate specific fat depots is calculated using thresholding and voxel count plugins from NIH image J software. VolumeJ is used to render, in a 3D image, the various fat depots. The animal management system that is used in conjunction with the MRI is equipped to take core, skin, ambient and water blanket temperature measurements that are monitored during the imaging. The water blanket is used to regulate core temperature of the rodent during anesthesia. […]
# High fat diet: Mice are given either a Standard Chow (SC) diet: 28% protein, 60% carbohydrate, 12% fat (4 kcal/gm) or a High Fat (HF) diet: 20% protein, 35% carbohydrate, 45% fat (4.7 kcal/gm) from Research Diets for 14-28 days. Food consumption is measured daily from the various treatment groups and pairfeeding ensures that changes seen in weight and visceral fat are due to the peripheral effects of the treatment. […]
# [1] = NPY pellet vs placebo pellet, FIG. 7
# [2] = intra-fat injection, HF and stress
# [3] = local Y2R antagonist, stress and HF-diet
# [4] = local intra-fat injections, within 2-weeks, HF + stress
compound,measurement,setting,value
neuropeptide Y [NPY],xenograft vascularization (density of CD31+ vessels),human fat pads; NPY pellet 1 μg/14 days alongside the xenograft,increased
same,xenograft 3-month survival,"human fat pads; NPY pellet 1 μg/14 days, placebo-treated grafts underwent resorption",increased
same,areas of more dense necrotic tissue (ultrasound),human fat pads; [1],more in NPY-treated than placebo-treated
same,"vacuolization / holes in fat pads (ultrasound, IHC)",human fat pads; [1],more holes in the placebo-pellet treated fat pads; also recorded: more numerous in placebo-treated than NPY-treated fat pads
N=C(N)NCCC[C@H](NC(=O)CC1(CC(=O)N2CCN(C3c4ccccc4NC(=O)c4ccccc43)CC2)CCCC1)C(=O)NCCn1c(=O)n(-c2ccccc2)n(-c2ccccc2)c1=O (stereo partly drawn) [BIIE0246],stress-amplification of visceral fat (MRI fat volume fraction),abdominal fat; four weeks daily 1-hr cold stress + high fat diet,reversed
same,stress-induced insulin-to-NPY switch and metabolic abnormalities,abdominal fat; intra-fat administration,fully prevented
same,fat mass,abdominal fat; [2],reduced fat mass
same,imbalance of NPY-to-epinephrine plasma levels,abdominal fat; [2],reversed this imbalance
same,stress+HF-induced hyperlipidemia,abdominal fat; intra-fat injections,did not alter
same,UCP-1/2 expression in WAT,"abdominal fat; intra-fat injections, stress+HF",did not alter
same,adipocyte apoptosis (TUNEL),abdominal fat; [3],increased their apoptosis
same,adipocyte proliferation (Ki67+ staining),abdominal fat; [3],inhibited adipocyte proliferation
same,insulin levels,abdominal fat; [4],increased insulin levels
same,metabolic profile,abdominal fat; [4],improved metabolic profile
same,plasma NPY levels,abdominal fat; [4],normalized
same,plasma adipokine levels,abdominal fat; [4],normalized
same,tissue steatosis (liver and skeletal muscle),"abdominal fat; local intra-fat injections, HF + stress, listed as Y2R antagonist",inhibited tissue steatosis; also recorded: reduced liver and skeletal muscle steatosis
same,visceral fat,"abdominal fat; nonstressed WT mice, FIG. 17",significant reduction in visceral fat
same,lowered plasma osteocalcin levels (bone loss response),"abdominal fat; stress combined with HF, intra-fat delivery",completely normalized
same,"stress-induced WAT cellularity, proliferation of small adipocytes",abdominal fat; stress in HF-fed mice,reversed
same,visceral fat volume fraction,"abdominal fat; stressed C57BL/6 WT mice, FIG. 17",reversed
same,other fat depots,"abdominal fat; stressed HF-fed mice, 2-weeks",without significantly changing other depots
same,reduction of abdominal (subcutaneous and visceral) depot,"abdominal fat; stressed HF-fed mice, pellet 10 μg/14 days or daily injections 1 μM, 2-weeks",40%
same,visceral fat volume fraction,"abdominal fat; stressed SV129 mice on high-fat diet, Y2R antagonist slow-release pellets, FIG. 16",reduced to a level that is comparable to nonstressed SV129 mice given a placebo pellet
